Measured values taken from PubChem BioAssay (NCI).
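Test compounds were applied to cells in 96-well plates for 48 hours at 5 doses. GI50 marks 50% less growth. TGI denotes the concentration required for complete inhibition of growth.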

Columns and labels:
Test in all cases: NCI anticancer screen, dose series, 48 h
[1] = test system: RXF 393 renal
[2] = test system: HCT-15 colon
[3] = test system: UO-31 renal
[4] = test system: HL-60(TB) leukemia
[5] = test system: K-562 leukemia
[6] = test system: SK-OV-3 ovarian
[7] = test system: HOP-92 NSCLC
[8] = test system: ACHN renal
[9] = test system: EKVX NSCLC
[10] = test system: TK-10 renal
[11] = test system: MDA-MB-435
[12] = test system: U251 CNS
[13] = test system: SNB-19 CNS
[14] = test system: OVCAR-5 ovarian
[15] = test system: A498 renal
[16] = test system: OVCAR-8 ovarian
[17] = test system: NCI-H460 lung
[18] = test system: MOLT-4 leukemia
[19] = test system: 786-0 renal
[20] = test system: NCI/ADR-RES ovarian
[21] = test system: IGROV1 ovarian
[22] = test system: SR leukemia
[23] = test system: COLO 205 colon
[24] = test system: KM12 colon
[25] = test system: MDA-MB-468 breast
[26] = test system: SNB-75 CNS
[27] = test system: SW-620 colon
[28] = test system: HS 578T breast
[29] = test system: MDA-MB-231 breast
[30] = test system: SF-295 CNS
[31] = test system: UACC-257 melanoma
[32] = test system: HCT-116 colon
[33] = test system: LOX IMVI melanoma
[34] = test system: RPMI-8226 leukemia
[35] = test system: HT29 colon
[36] = test system: SK-MEL-2 melanoma
[37] = test system: A549 NSCLC
[38] = test system: M14 melanoma
[39] = test system: DU-145 prostate
[40] = test system: CAKI-1 renal
[41] = test system: BT-549 breast
[42] = test system: NCI-H522 lung
[43] = test system: SK-MEL-28 melanoma
[44] = test system: SN12C renal
[45] = test system: SF-268 CNS
[46] = test system: T-47D breast
[47] = test system: PC-3 prostate
[48] = test system: CCRF-CEM leukemia
[49] = test system: UACC-62 melanoma
[50] = test system: NCI-H23 lung
[51] = test system: SF-539 CNS
[52] = test system: MCF7 breast
[53] = test system: OVCAR-3 ovarian
[54] = test system: HOP-62 NSCLC
[55] = test system: HCC-2998 colon
[56] = test system: NCI-H226 lung
[57] = test system: OVCAR-4 ovarian
[58] = test system: MALME-3M melanoma
[59] = test system: SK-MEL-5 melanoma

Q: With `Nc1nnc(-c2c[nH]c3ncc(Br)cc23)c(-c2c[nH]c3ccc(Br)cc23)n1` as the compound, how does the GI50 [1] read?
A: 1.78 µM

Q: What about the TGI [1] of the same compound?
A: 7.03 µM

Q: What about the GI50 [2] of the same compound?
A: 4.41 µM

Q: And the TGI [2]?
A: 19.1 µM

Q: And the GI50 [3]?
A: 4.58 µM

Q: And the TGI [3]?
A: 20.7 µM

Q: What about the GI50 [4] of the same compound?
A: 1.99 µM

Q: And the TGI [4]?
A: 16.3 µM

Q: And the GI50 [5]?
A: 0.497 µM

Q: What about the TGI [5] of the same compound?
A: 16.8 µM

Q: And the GI50 [6]?
A: 10.6 µM

Q: What about the TGI [6] of the same compound?
A: 24.4 µM

Q: And the GI50 [7]?
A: 4.06 µM

Q: And the TGI [7]?
A: 24.3 µM

Q: What about the GI50 [8] of the same compound?
A: 6.04 µM

Q: And the TGI [8]?
A: 19.6 µM

Q: What about the GI50 [9] of the same compound?
A: 10.2 µM

Q: What about the TGI [9] of the same compound?
A: 26.3 µM

Q: And the GI50 [10]?
A: 15.1 µM

Q: And the TGI [10]?
A: 33.5 µM

Q: And the GI50 [11]?
A: 0.379 µM

Q: What about the TGI [11] of the same compound?
A: 16.1 µM

Q: What about the GI50 [12] of the same compound?
A: 10.1 µM

Q: And the TGI [12]?
A: 29.7 µM

Q: What about the GI50 [13] of the same compound?
A: 10.9 µM

Q: And the TGI [13]?
A: 33.7 µM

Q: What about the GI50 [14] of the same compound?
A: 10.8 µM

Q: What about the TGI [14] of the same compound?
A: 27.3 µM

Q: What about the GI50 [15] of the same compound?
A: 13.7 µM

Q: And the TGI [15]?
A: 29 µM

Q: And the GI50 [16]?
A: 10.4 µM

Q: What about the TGI [16] of the same compound?
A: 30.4 µM

Q: And the GI50 [17]?
A: 5.14 µM

Q: What about the TGI [17] of the same compound?
A: 24.4 µM

Q: What about the GI50 [18] of the same compound?
A: 1.89 µM

Q: What about the TGI [18] of the same compound?
A: 12.7 µM

Q: And the GI50 [19]?
A: 8.24 µM

Q: And the TGI [19]?
A: 23.2 µM

Q: And the GI50 [20]?
A: 13.4 µM

Q: And the TGI [20]?
A: 36.4 µM

Q: And the GI50 [21]?
A: 6.29 µM

Q: And the TGI [21]?
A: 24.4 µM

Q: What about the GI50 [22] of the same compound?
A: 0.378 µM

Q: And the TGI [22]?
A: 14.8 µM

Q: What about the GI50 [23] of the same compound?
A: 3.35 µM

Q: What about the TGI [23] of the same compound?
A: 14.9 µM

Q: What about the GI50 [24] of the same compound?
A: 6.18 µM

Q: And the TGI [24]?
A: 23.6 µM

Q: What about the GI50 [25] of the same compound?
A: 1.57 µM

Q: What about the TGI [25] of the same compound?
A: 8.83 µM

Q: And the GI50 [26]?
A: 1.56 µM

Q: What about the TGI [26] of the same compound?
A: 8.26 µM

Q: What about the GI50 [27] of the same compound?
A: 5.32 µM

Q: And the TGI [27]?
A: 27.2 µM

Q: And the GI50 [28]?
A: 4.47 µM

Q: What about the TGI [28] of the same compound?
A: 28.8 µM

Q: What about the GI50 [29] of the same compound?
A: 13.1 µM

Q: And the TGI [29]?
A: 32.5 µM

Q: And the GI50 [30]?
A: 5.4 µM

Q: And the TGI [30]?
A: 20.8 µM

Q: And the GI50 [31]?
A: 12.4 µM

Q: And the TGI [31]?
A: 29.7 µM

Q: And the GI50 [32]?
A: 3.82 µM

Q: And the TGI [32]?
A: 18.9 µM

Q: And the GI50 [33]?
A: 5.39 µM

Q: What about the TGI [33] of the same compound?
A: 23.3 µM

Q: What about the GI50 [34] of the same compound?
A: 4.68 µM

Q: And the TGI [34]?
A: 50.4 µM

Q: And the GI50 [35]?
A: 5.74 µM

Q: What about the TGI [35] of the same compound?
A: 26 µM

Q: What about the GI50 [36] of the same compound?
A: 6.31 µM

Q: What about the TGI [36] of the same compound?
A: 23.1 µM

Q: What about the GI50 [37] of the same compound?
A: 10.9 µM

Q: What about the TGI [37] of the same compound?
A: 44.5 µM

Q: What about the GI50 [38] of the same compound?
A: 4.67 µM

Q: What about the TGI [38] of the same compound?
A: 22.2 µM

Q: And the GI50 [39]?
A: 7.24 µM

Q: And the TGI [39]?
A: 21.1 µM

Q: What about the GI50 [40] of the same compound?
A: 4.02 µM

Q: What about the TGI [40] of the same compound?
A: 17.9 µM

Q: And the GI50 [41]?
A: 2.71 µM

Q: What about the TGI [41] of the same compound?
A: 12 µM

Q: And the GI50 [42]?
A: 0.403 µM

Q: And the TGI [42]?
A: 15.3 µM

Q: And the GI50 [43]?
A: 10.5 µM

Q: What about the TGI [43] of the same compound?
A: 24.4 µM

Q: What about the GI50 [44] of the same compound?
A: 7.31 µM

Q: What about the TGI [44] of the same compound?
A: 23.6 µM

Q: What about the GI50 [45] of the same compound?
A: 8.72 µM

Q: And the TGI [45]?
A: 34 µM

Q: What about the GI50 [46] of the same compound?
A: 4.16 µM

Q: And the TGI [46]?
A: 26.2 µM

Q: What about the GI50 [47] of the same compound?
A: 3.6 µM

Q: And the TGI [47]?
A: 22.4 µM

Q: What about the GI50 [48] of the same compound?
A: 2.33 µM

Q: And the TGI [48]?
A: > 100 µM

Q: And the GI50 [49]?
A: 3.79 µM

Q: And the TGI [49]?
A: 18.8 µM

Q: What about the GI50 [50] of the same compound?
A: 11.3 µM

Q: What about the TGI [50] of the same compound?
A: 26.2 µM

Q: What about the GI50 [51] of the same compound?
A: 3.48 µM

Q: And the TGI [51]?
A: 17.2 µM

Q: And the GI50 [52]?
A: 0.92 µM

Q: What about the TGI [52] of the same compound?
A: 18.5 µM

Q: What about the GI50 [53] of the same compound?
A: 3 µM

Q: And the TGI [53]?
A: 12.7 µM

Q: What about the GI50 [54] of the same compound?
A: 5.26 µM

Q: And the TGI [54]?
A: 20.2 µM

Q: And the GI50 [55]?
A: 14 µM

Q: What about the TGI [55] of the same compound?
A: 28.9 µM

Q: What about the GI50 [56] of the same compound?
A: 3.77 µM

Q: And the TGI [56]?
A: 26.9 µM

Q: What about the GI50 [57] of the same compound?
A: 5.78 µM

Q: What about the TGI [57] of the same compound?
A: 21.7 µM

Q: And the GI50 [58]?
A: 4.61 µM

Q: And the TGI [58]?
A: 25.8 µM

Q: And the GI50 [59]?
A: 3.06 µM

Q: What about the TGI [59] of the same compound?
A: 13.9 µM
